Drawing on PubChem BioAssay AID330 (DTP/NCI, 2004), this text covers T/C for 21 compounds.

The test system of the assay is P388 leukemia ip, CD2F1 mice, survival T/C. Kind of assay: NCI In Vivo Anticancer Drug Screen. Data for tumor model P388 Leukemia (intraperitoneal) in CD2F1 (CDF1) mice. Conditions: endpoint: median survival time, higher = longer survival. The essentials:
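Mice carrying the transplanted tumor received test compound or vehicle. Survival was recorded in each group, and the value is the treated-group measurement divided by that of the vehicle-treated control group.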

Where [1] appears, read: dose: 100.0 mg/kg/injection, schedule: Q04DX002 (ip), vehicle: saline with Tween-80.
[2] abbreviates: dose: 200.0 mg/kg/injection, schedule: Q04DX002 (ip), vehicle: saline with Tween-80.
Where [3] appears, read: dose: 100.0 mg/kg/injection, schedule: Q01DX009 (ip), vehicle: saline with Tween-80.
Setting [4] is: dose: 50.0 mg/kg/injection, schedule: Q01DX009 (ip), vehicle: saline.
The mark [5] stands for this setting: dose: 100.0 mg/kg/injection, schedule: Q01DX009 (ip), vehicle: saline.
[6] abbreviates: dose: 50.0 mg/kg/injection, schedule: Q01DX005 (ip), vehicle: Klucel (hydroxypropylcellulose) (HPC).
Where [7] appears, read: dose: 100.0 mg/kg/injection, schedule: Q01DX005 (ip), vehicle: Klucel (hydroxypropylcellulose) (HPC).
Setting [8] is: dose: 200.0 mg/kg/injection, schedule: Q01DX005 (ip), vehicle: Klucel (hydroxypropylcellulose) (HPC).

Inconclusive results and toxic doses are left out.

For `COCC1(C)CCCC2(C)C1CCC13CCC(OC(C)=O)CC12O3` (configuration not stated), the T/C runs as follows: (dose: 100.0 mg/kg/injection, schedule: Q01DX001 (ip), vehicle: saline) 102 % of control; (dose: 200.0 mg/kg/injection, schedule: Q01DX001 (ip), vehicle: saline) 108 % of control; (dose: 400.0 mg/kg/injection, schedule: Q01DX001 (ip), vehicle: saline) 110 % of control.

With `CC(=O)Oc1cccn(C)c1=O`, the T/C is 108 % of control (dose: 37.5 mg/kg/injection, schedule: Q01DX009 (ip), vehicle: saline); 103 % of control (dose: 75.0 mg/kg/injection, schedule: Q01DX009 (ip), vehicle: saline); 113 % of control (dose: 150.0 mg/kg/injection, schedule: Q01DX009 (ip), vehicle: saline); 119 % of control (dose: 300.0 mg/kg/injection, schedule: Q01DX009 (ip), vehicle: saline); 117 % of control (dose: 500.0 mg/kg/injection, schedule: Q01DX009 (ip), vehicle: saline).

In the case of `NNC(=O)C1CC2CCCCC2CC1O` (configuration not stated), the T/C reads like this: (dose: 100.0 mg/kg/injection, schedule: Q04DX002 (ip), vehicle: Klucel (hydroxypropylcellulose) (HPC)) 101 % of control; (dose: 200.0 mg/kg/injection, schedule: Q04DX002 (ip), vehicle: Klucel (hydroxypropylcellulose) (HPC)) 99 % of control; (dose: 400.0 mg/kg/injection, schedule: Q04DX002 (ip), vehicle: Klucel (hydroxypropylcellulose) (HPC)) 108 % of control.

Regarding `COc1ccc(/C=N\N=C(/[O-])c2ccc(Cl)cc2)cc1.COc1ccc(/C=N\N=C(/[O-])c2ccc(Cl)cc2)cc1.[Mn+2].[OH3+].[OH3+]`, the T/C reads like this: (dose: 50.0 mg/kg/injection, schedule: Q04DX002 (ip), vehicle: saline with Tween-80) 102 % of control; under setting [1], 102 % of control; under setting [2], 104 % of control.

As for `O=c1[nH][nH]c(=S)n1-c1ccccc1`, the T/C was 98 % of control (dose: 50.0 mg/kg/injection, schedule: Q01DX009 (ip), vehicle: saline with Tween-80); 101 % of control under setting [3]; 94 % of control (dose: 200.0 mg/kg/injection, schedule: Q01DX009 (ip), vehicle: saline with Tween-80); 88 % of control (dose: 400.0 mg/kg/injection, schedule: Q01DX009 (ip), vehicle: saline with Tween-80).

On to `c1cc[n+](Cc2ccc3ccccc3c2)c(C2OCCO2)c1`, for which the T/C reads like this: (dose: 5.0 mg/kg/injection, schedule: Q01DX009 (ip), vehicle: saline) 100 % of control; (dose: 10.0 mg/kg/injection, schedule: Q01DX009 (ip), vehicle: saline) 100 % of control; (dose: 20.0 mg/kg/injection, schedule: Q01DX009 (ip), vehicle: saline) 104 % of control.

As to `COc1cc(Nc2ccccc2)c2c(c1N)C(=O)c1ccccc1C2=O`, the T/C (dose: 50.0 mg/kg/injection, schedule: Q01DX005 (ip), vehicle: saline with Tween-80) is 91 % of control and the T/C (dose: 100.0 mg/kg/injection, schedule: Q01DX005 (ip), vehicle: saline with Tween-80) is 88 % of control.

Turning to `COC1=CCC=C(C(C)(C)C)C1`, the T/C is, setting by setting: (dose: 60.0 mg/kg/injection, schedule: Q01DX005 (ip), vehicle: saline with Tween-80) 98 % of control; (dose: 120.0 mg/kg/injection, schedule: Q01DX005 (ip), vehicle: saline with Tween-80) 94 % of control; (dose: 240.0 mg/kg/injection, schedule: Q01DX005 (ip), vehicle: saline with Tween-80) 103 % of control.

For `CCOC(=O)c1ccc(NC(=O)CSc2nc3ccccc3o2)cc1`, the T/C is 114 % of control under setting [4] and 93 % of control under setting [5].

Regarding `N#Cc1c(=O)n(CCO)nc2c3ccccc3c3ccccc3c12`, the T/C reads like this: under setting [1], 97 % of control; under setting [2], 88 % of control.

As to `O=C1NC(O)c2cc(Cl)cc(Cl)c2O1` (configuration not stated), the T/C by setting is: under setting [6], 102 % of control; under setting [7], 102 % of control; under setting [8], 115 % of control.

Take `O=c1[nH]c(-c2ccc(O)cc2)cc2ccccc12`: the T/C reads like this: under setting [1], 99 % of control; under setting [2], 100 % of control; (dose: 400.0 mg/kg/injection, schedule: Q04DX002 (ip), vehicle: saline with Tween-80) 100 % of control.

On to `O=C1Nc2ccc(Cl)cc2C(c2ccccc2Cl)=NC1O` (configuration not stated), for which the T/C is 102 % of control (dose: 100.0 mg/kg/injection, schedule: Q01DX009 (ip), vehicle: Klucel (hydroxypropylcellulose) (HPC)) and 96 % of control (dose: 200.0 mg/kg/injection, schedule: Q01DX009 (ip), vehicle: Klucel (hydroxypropylcellulose) (HPC)).

For the compound `Cc1cc(C)c(C#N)c(SC(C(=O)NC(C)(C)C)c2ccccc2)n1` (configuration not stated), the T/C by setting is: under setting [6], 88 % of control; under setting [7], 87 % of control; under setting [8], 87 % of control.

As for `ClC(Cl)=Nc1ccc(Cl)cc1Cl`, the T/C was 100 % of control under setting [4] and 89 % of control under setting [5].

On to `O=C(O)CCCCCSCCCCCCSCCCCCC(=O)O`, for which the T/C is, setting by setting: under setting [6], 102 % of control; under setting [7], 105 % of control; under setting [8], 100 % of control.

For the compound `CCN(CC)CCCNC(=O)Cc1ccc2c(c1)C(=O)c1ccccc1C2=O`, the T/C is 106 % of control (dose: 25.0 mg/kg/injection, schedule: Q01DX005 (ip), vehicle: water); 108 % of control (dose: 50.0 mg/kg/injection, schedule: Q01DX005 (ip), vehicle: water); 97 % of control (dose: 100.0 mg/kg/injection, schedule: Q04DX002 (ip), vehicle: water).

For `CC(=O)N1c2ccccc2Sc2ccc3ccc(C(=O)CCl)cc3c21`, under setting [3], the T/C was 115 % of control.

In the case of `COc1ccc(CC2C(=O)OC(=O)C2Cc2ccc(OC)c(OC)c2)cc1OC` (configuration not stated), the T/C runs as follows: (dose: 100.0 mg/kg/injection, schedule: Q04DX003 (ip), vehicle: saline with Tween-80) 100 % of control; (dose: 200.0 mg/kg/injection, schedule: Q04DX003 (ip), vehicle: saline with Tween-80) 90 % of control; (dose: 400.0 mg/kg/injection, schedule: Q04DX003 (ip), vehicle: saline with Tween-80) 100 % of control.

For the compound `Cc1csc(C)[n+]1C`, the T/C by setting is: (dose: 25.0 mg/kg/injection, schedule: Q01DX009 (ip), vehicle: saline sonified) 100 % of control; (dose: 50.0 mg/kg/injection, schedule: Q01DX009 (ip), vehicle: saline sonified) 100 % of control; (dose: 100.0 mg/kg/injection, schedule: Q01DX009 (ip), vehicle: saline sonified) 90 % of control.

Turning to `CC1(C)N=C(N)N=C(N)N1c1cccc(Cl)c1Cl`, the T/C was 100 % of control (dose: 5.0 mg/kg/injection, schedule: Q01DX009 (ip), vehicle: saline with Tween-80); 95 % of control (dose: 5.0 mg/kg/injection, schedule: Q04DX003 (ip), vehicle: saline); 108 % of control (dose: 10.0 mg/kg/injection, schedule: Q01DX009 (ip), vehicle: saline with Tween-80); 95 % of control (dose: 10.0 mg/kg/injection, schedule: Q04DX003 (ip), vehicle: saline); 121 % of control (dose: 20.0 mg/kg/injection, schedule: Q01DX009 (ip), vehicle: saline with Tween-80); 116 % of control (dose: 20.0 mg/kg/injection, schedule: Q04DX003 (ip), vehicle: saline).
